# Target: T1, PLK4 (Homo sapiens, UniProt O00444)
# T1 sequence (O00444 1-970): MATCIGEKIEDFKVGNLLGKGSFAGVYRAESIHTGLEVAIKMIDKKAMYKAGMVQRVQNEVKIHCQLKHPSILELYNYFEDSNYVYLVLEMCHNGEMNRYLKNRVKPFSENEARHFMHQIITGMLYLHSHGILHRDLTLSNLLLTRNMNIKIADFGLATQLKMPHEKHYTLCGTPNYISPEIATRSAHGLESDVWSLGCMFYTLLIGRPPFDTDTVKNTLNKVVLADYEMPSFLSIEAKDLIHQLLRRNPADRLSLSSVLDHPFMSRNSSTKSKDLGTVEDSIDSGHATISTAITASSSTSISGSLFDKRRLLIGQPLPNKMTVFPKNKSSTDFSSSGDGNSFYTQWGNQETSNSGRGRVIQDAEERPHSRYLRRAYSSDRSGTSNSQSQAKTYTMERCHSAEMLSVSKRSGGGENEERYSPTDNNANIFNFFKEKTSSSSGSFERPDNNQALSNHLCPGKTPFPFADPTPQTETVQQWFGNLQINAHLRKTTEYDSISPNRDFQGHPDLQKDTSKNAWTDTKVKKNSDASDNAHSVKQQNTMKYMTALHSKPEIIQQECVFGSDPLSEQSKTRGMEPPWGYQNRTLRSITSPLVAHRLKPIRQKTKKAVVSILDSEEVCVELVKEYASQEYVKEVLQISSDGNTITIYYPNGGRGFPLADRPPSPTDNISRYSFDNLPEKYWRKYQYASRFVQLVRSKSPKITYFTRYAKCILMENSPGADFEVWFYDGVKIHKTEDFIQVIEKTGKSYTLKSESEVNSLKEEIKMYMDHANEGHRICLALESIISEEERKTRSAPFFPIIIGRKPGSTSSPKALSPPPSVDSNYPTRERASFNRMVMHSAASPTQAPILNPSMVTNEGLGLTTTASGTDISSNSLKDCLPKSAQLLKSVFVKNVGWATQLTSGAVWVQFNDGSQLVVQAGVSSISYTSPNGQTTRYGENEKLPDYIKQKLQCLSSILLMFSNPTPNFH
# Test: Activity (IC50) of the Table 1 compounds as PLK4 inhibitors
# Format: biochemical
# Settings: Table 1, IC50 class
row,SMILES,IC50 [nM]
1,Cc1cc(Nc2nc(Sc3ccc(NC(=O)C4CC4)cc3)nc(N3CCN(C)CC3)c2C)n[nH]1,< 100
2,CNc1nc(Sc2ccc(NC(=O)C3CC3)cc2)nc(Nc2cc(C)[nH]n2)c1C,< 100
3,CCNc1nc(Sc2ccc(NC(=O)C3CC3)cc2)nc(Nc2cc(C)[nH]n2)c1C,< 100
4,CCCC(=O)Nc1ccc(Sc2nc(Nc3cc(C)[nH]n3)c(C)c(N3CCN(C)CC3)n2)cc1,< 100
5,Cc1cc(Nc2nc(Sc3ccc(NC(=O)C4CC4)cc3)nc(NC(C)C)c2C)n[nH]1,< 100
6,CCN(C)c1nc(Sc2ccc(NC(C)=O)cc2)nc(Nc2cc(C)[nH]n2)c1C,< 100
7,CC(=O)Nc1ccc(Sc2nc(Nc3cc(C)[nH]n3)c(C)c(N(C)C)n2)cc1,< 100
8,COc1c(Nc2cc(C)[nH]n2)nc(Sc2ccc(NC(C)=O)cc2)nc1N1CCC(CCN2CCOCC2)CC1,< 100
9,COc1c(Nc2cc(C)[nH]n2)nc(Sc2ccc(NC(C)=O)cc2)nc1NC1CCNCC1,< 100
10,CCc1cc(Nc2nc(SC)nc(N3CCN(CCN(C)C)CC3)c2OC)n[nH]1,< 100
11,CCc1cc(Nc2nc(SC)nc(N3CCN(CCN(C)C)CC3)c2C)n[nH]1,< 100
12,COc1c(Nc2cc(C)[nH]n2)nc(Sc2ccc(NC(C)=O)nc2)nc1N1CCOCC1,< 100
13,COc1c(Nc2cc(C)[nH]n2)nc(Sc2ccc(S(=O)(=O)C(C)(C)c3ncc[nH]3)cc2)nc1N1CCN(CCN(C)C)CC1,< 100
14,COc1c(Nc2cc(C)[nH]n2)nc(Sc2ccc(S(=O)(=O)C(C)(C)c3cccc([N+](=O)[O-])c3F)cc2F)nc1N1CCC(C(N)=O)CC1,< 100
15,COc1c(Nc2cc(C)[nH]n2)nc(Sc2ccc(S(=O)(=O)C(C)(C)c3cccc([N+](=O)[O-])c3F)cc2F)nc1N1CCN(C(C)=O)CC1,< 100
16,COc1c(Nc2cc(C)[nH]n2)nc(Sc2ccc(S(=O)(=O)C(C)(C)c3cccc([N+](=O)[O-])c3F)cc2F)nc1N1CCC(C(=O)N(C)C)CC1,< 100
17,COc1c(Nc2cc(C)[nH]n2)nc(Sc2ccc(S(=O)(=O)C(C)(C)c3c(F)c(F)cc(F)c3F)cc2F)nc1N1CCC(CCNC(C)=O)CC1,< 100
18,COc1c(Nc2cc(C)[nH]n2)nc(Sc2ccc(S(=O)(=O)C(C)(C)c3c(F)c(F)cc(F)c3F)cc2F)nc1N1CCC(CCN)CC1,< 100
19,COc1c(Nc2cc(C)[nH]n2)nc(Sc2ccc(S(=O)(=O)C3(c4cccc([N+](=O)[O-])c4F)CC3)cc2F)nc1N1CCN(CCNC(C)=O)CC1,< 100
20,COc1c(Nc2cc(C)[nH]n2)nc(Sc2ccc(S(=O)(=O)C(C)(C)c3c(F)c(F)cc(F)c3F)cc2F)nc1N1CCN(C(C)=O)CC1,< 100
21,COc1c(Nc2cc(C)[nH]n2)nc(Sc2ccc(S(=O)(=O)Cc3cccc([N+](=O)[O-])c3F)cc2F)nc1N1CCC(NC(C)=O)CC1,< 100

row,SMILES,IC50 [nM]
1,COc1c(Nc2cc(C)[nH]n2)nc(Sc2ccc(S(=O)(=O)C3(c4cccc([N+](=O)[O-])c4F)CC3)cc2F)nc1N1CCC(CN(C)C)CC1,< 100
2,COc1c(Nc2cc(C)[nH]n2)nc(Sc2ccc(S(=O)(=O)C3(c4cccc([N+](=O)[O-])c4F)CC3)cc2F)nc1N1CCC(C(N)=O)CC1,< 100
3,COc1c(Nc2cc(C)[nH]n2)nc(Sc2ccc(S(=O)(=O)C(C)(C)c3c(F)c(F)cc(F)c3F)cc2F)nc1N1CCC(N)C1 (stereo not drawn),< 100
4,COc1c(Nc2cc(C)[nH]n2)nc(Sc2ccc(S(=O)(=O)C(C)(C)c3c(F)c(F)cc(F)c3F)cc2F)nc1N1CCC(N)CC1,< 100
5,COc1c(Nc2cc(C)[nH]n2)nc(Sc2ccc(S(=O)(=O)C(C)(C)c3cccc([N+](=O)[O-])c3F)cc2F)nc1N1CCC(N)C1 (stereo not drawn),< 100
6,COc1c(Nc2cc(C)[nH]n2)nc(Sc2ccc(S(=O)(=O)Cc3cccc([N+](=O)[O-])c3F)cc2F)nc1N1CCC(CC(N)=O)CC1,< 100
7,COc1c(Nc2cc(C)[nH]n2)nc(Sc2ccc(S(=O)(=O)Cc3cccc([N+](=O)[O-])c3F)cc2F)nc1N1CCC(CCNC(C)=O)CC1,< 100
8,COc1c(Nc2cc(C)[nH]n2)nc(Sc2ccc(S(=O)(=O)C3(c4c(F)c(F)cc(F)c4F)CC3)cc2F)nc1N1CCOCC1,< 100
9,COc1c(Nc2cc(C)[nH]n2)nc(Sc2ccc(S(=O)(=O)C(C)(C)c3cccc([N+](=O)[O-])c3F)cc2F)nc1N1CCC(NC(=O)C(F)(F)F)CC1,< 100
10,COc1c(Nc2cc(C)[nH]n2)nc(Sc2ccc(S(=O)(=O)C(C)(C)c3c(F)c(F)cc(F)c3F)cc2F)nc1N1CCC(CC(N)=O)CC1,< 100
11,COc1c(Nc2cc(C)[nH]n2)nc(Sc2ccc(S(=O)(=O)C(C)(C)c3c(F)c(F)cc(F)c3F)cc2F)nc1N1CCC(CN)CC1,< 100
12,COc1c(Nc2cc(C)[nH]n2)nc(Sc2ccc(S(=O)(=O)C3(c4cccc([N+](=O)[O-])c4F)CC3)cc2F)nc1N1CCC(CCN(C)C)CC1,< 100
13,COc1c(Nc2cc(C)[nH]n2)nc(Sc2ccc(S(=O)(=O)C3(c4cccc([N+](=O)[O-])c4F)CC3)cc2F)nc1N1CCOCC1,< 100
14,COc1c(Nc2cc(C)[nH]n2)nc(Sc2ccc(S(=O)(=O)C3(c4cccc([N+](=O)[O-])c4F)CC3)cc2F)nc1N1CCN(CCN(C)C)CC1,< 100
15,COc1c(Nc2cc(C)[nH]n2)nc(Sc2ccc(S(=O)(=O)C3(c4cccc([N+](=O)[O-])c4F)CC3)cc2F)nc1N1CCC(CC(N)=O)CC1,< 100
16,COc1c(Nc2cc(C)[nH]n2)nc(Sc2ccc(S(=O)(=O)C3(c4cccc([N+](=O)[O-])c4F)CC3)cc2F)nc1N1CCC(NC(C)=O)CC1,< 100
17,COc1c(Nc2cc(C)[nH]n2)nc(Sc2ccc(S(=O)(=O)C(C)(C)c3c(F)c(F)cc(F)c3F)cc2F)nc1N1CCNCC1,< 100
18,COc1c(Nc2cc(C)[nH]n2)nc(Sc2ccc(S(=O)(=O)C3(c4cccc([N+](=O)[O-])c4F)CC3)cc2F)nc1N1CCC(NC(=O)C(F)(F)F)CC1,< 100
19,COc1c(Nc2cc(C)[nH]n2)nc(Sc2ccc(S(=O)(=O)C3(c4cccc([N+](=O)[O-])c4F)CC3)cc2F)nc1N1CCC(C(=O)N(C)C)CC1,< 100
20,COc1c(Nc2cc(C)[nH]n2)nc(Sc2ccc(S(=O)(=O)C3(c4cccc([N+](=O)[O-])c4F)CC3)cc2F)nc1N1CCNCC1,< 100
21,COc1c(Nc2cc(C)[nH]n2)nc(Sc2ccc(S(=O)(=O)C3(c4cccc([N+](=O)[O-])c4F)CC3)cc2F)nc1N1CCC(N)CC1,< 100

row,SMILES,IC50 [nM]
1,COc1c(Nc2cc(C)[nH]n2)nc(Sc2ccc(S(=O)(=O)C3(c4cccc([N+](=O)[O-])c4F)CC3)cc2F)nc1N1CCC(CN)CC1,< 100
2,COc1c(Nc2cc(C)[nH]n2)nc(Sc2ccc(S(=O)(=O)C(C)(C)c3cccc([N+](=O)[O-])c3F)cc2F)nc1N1CCC(CCNC(=O)C(F)(F)F)CC1,< 100
3,COc1c(Nc2cc(C)[nH]n2)nc(Sc2cccc(NC(C)=O)c2)nc1N1CCN(CCN(C)C)CC1,< 100
4,COc1c(Nc2cc(C)[nH]n2)nc(Sc2cccc(NC(C)=O)c2)nc1N1CCOCC1,< 100
5,COc1c(Nc2cc(C)[nH]n2)nc(Sc2ccc(NC(C)=O)cc2)nc1N1CCN(CC(=O)N2CCOCC2)CC1,< 100
6,COc1c(Nc2cc(C)[nH]n2)nc(Sc2ccc(NC(C)=O)cc2)nc1N1CCN(CC(=O)C2CCCCC2)CC1,< 100
7,Cc1cc(Nc2nc(Sc3ccc([N+](=O)[O-])cc3)nc3c2CCC32CCN(C(=O)C(C)(C)C)CC2)n[nH]1,< 100
8,Cc1cc(Nc2nc(Sc3ccc([N+](=O)[O-])cc3)nc3c2CCC32CCNCC2)n[nH]1,100 to 1000
9,CC(=O)Nc1ccc(Sc2nc(Nc3cc(C)[nH]n3)c3c(n2)C2(CC3)CCN(C(=O)C(C)(C)C)CC2)cc1,< 100
10,COc1c(Nc2cc(C)[nH]n2)nc(Sc2ccc([N+](=O)[O-])cc2)nc1N1CCN(CCN(C)C)CC1,< 100
11,COc1c(Nc2cc(C)[nH]n2)nc(Sc2ccc(NC(C)=O)cc2)nc1C1=CCNCC1,< 100
12,COc1c(Nc2cc(C)[nH]n2)nc(Sc2ccc(NC(C)=O)cc2)nc1N1CCN(CCN(C)C)C(C)C1 (stereo not drawn),< 100
13,COc1c(Nc2cc(C)[nH]n2)nc(Sc2ccc(NC(C)=O)cc2)nc1C1=CCN(CC(=O)N(C)C)CC1,< 100
14,COc1c(Nc2cc(C)[nH]n2)nc(Sc2ccc(NC(C)=O)cc2)nc1C1=CCN(CCN(C)C)CC1,< 100
15,COc1c(Nc2cc(C)[nH]n2)nc(Sc2ccc(NC(C)=O)cc2)nc1N1CCN(CCN(C)C)CC1C (stereo not drawn),< 100
16,COc1c(Nc2cc(C)[nH]n2)nc(Sc2ccc(NC(C)=O)cc2)nc1C1=CCN(C)CC1,< 100
17,CC(=O)Nc1ccc(Sc2nc(Nc3cc(C)[nH]n3)c3c(n2)C2(CC3)CCN(CCN(C)C)CC2)cc1,< 100
18,Cc1cc(Nc2nc(Sc3ccc([N+](=O)[O-])cc3)nc3c2CCC32CCN(CCN(C)C)CC2)n[nH]1,< 100
19,Cc1cc(Nc2nc(Sc3ccc(N)cc3)nc3c2CCC32CCN(CCN(C)C)CC2)n[nH]1,< 100
20,COc1c(Nc2cc(C)[nH]n2)nc(Sc2ccc(NC(C)=O)cc2)nc1N1CCN(CCN2CCCC2)CC1,< 100
21,CCN(C)CCN1CCN(c2nc(Sc3ccc(NC(C)=O)cc3)nc(Nc3cc(C)[nH]n3)c2OC)CC1,< 100
